Assay results: patent US11738095B2, “Cyanine-containing compounds for cancer imaging and treatment” (Emory University, priority 2007, dated 2023)
“Also recorded” adds a separate entry of the source. Read-outs that look alike come from different tables or passages of the source.

Tests used:
[1] = system: C4-2; assay: effect of MHI-25 on C4-2 cells in culture (FIG. 9 top); assay type: cell-based, human; conditions: for cell death in culture: 24 hrs
Description: To confirm the ability of other compounds to exert cytotoxicity against the growth of human tumors in vitro and in vivo, the effect of MHI-25 on the growth of C4-2 tumors in vitro (FIG. 9 top panel) and in mice (FIG. 9 bottom panel) was studied.

[2] = system: C4-2 tumors; assay: effect of MHI-25 on pre-established C4-2 tumors in mice (FIG. 9 bottom); assay type: in vivo, mouse; conditions: 100 nmols, Day 5 after administration
[3] = system: SN12C, ACHN; assay: uptake of IR783 in cell lines: renal; assay type: cell-based, human
Description: (§1) The uptake of IR783 was studied and confirmed in a variety of human cell lines as shown below: […]

[4] = system: PDAC-2.3, PDAC-3.3, BTC-3, BTC-5; assay: uptake of IR783 in cell lines: pancreatic; assay type: cell-based, human
Description: as §1

[5] = system: HEK293; assay: uptake of IR783 in cell lines: human embryonic kidney epithelial normal cells; assay type: cell-based
Description: as §1

[6] = system: ARCaPM, LNCaP, ARCaPE, C4-2, PC-3; assay: uptake of IR783 in cell lines: prostate; assay type: cell-based, human
Description: as §1

[7] = system: HepG2; assay: uptake of IR783 in cell lines: liver; assay type: cell-based, human
Description: as §1

[8] = system: MCF-7; assay: uptake of IR783 in cell lines: breast; assay type: cell-based, human
Description: as §1

[9] = system: HeLa; assay: uptake of IR783 in cell lines: cervical; assay type: cell-based, human
Description: as §1

[10] = system: H358; assay: uptake of IR783 in cell lines: lung; assay type: cell-based, human
Description: as §1

[11] = system: K562; assay: uptake of IR783 in cell lines: leukemia; assay type: cell-based, human
Description: as §1

[12] = system: P69; assay: uptake of IR783 in cell lines: human prostate epithelia; assay type: cell-based
Description: as §1

[13] = system: NPF; assay: uptake of IR783 in cell lines: prostate fibroblasts; assay type: cell-based, human
Description: as §1

[14] = system: HaCaT; assay: uptake of IR783 in cell lines: skin; assay type: cell-based, human
Description: as §1

[15] = system: BMC; assay: uptake of IR783 in cell lines: bone marrow stroma; assay type: cell-based, human
Description: as §1

[16] = system: VEC; assay: uptake of IR783 in cell lines: vascular endothelia; assay type: cell-based, human
Description: as §1

[17] = system: RAW; assay: uptake of IR783 in cell lines: mouse macrophages; assay type: cell-based
Description: as §1

[18] = system: ARCaPM prostate cancer cells and P69 normal prostate epithelial cells; assay: confocal fluorescence imaging of IR783 uptake, cancer versus normal cells (FIG. 14); assay type: cell-based, human
Procedure: After being washed in PBS to remove free dyes, the cells were subject to confocal fluorescence imaging. DAPI, added together with IR783, was used as a positive control for the staining of the cell nucleus. P69, representing normal human prostate epithelial cells, was stained in parallel. Images were acquired by Zeiss LSM 510 META confocal microscopy. […] 100 μM BSP was used to pre-incubate with ARCaPM, before 50 μM IR783 was added.

[19] = system: subcutaneous ARCaPM tumor, intratibial C4-2 tumor; assay: IR783 imaging of human prostate cancer xenografts in nude mice (FIG. 15); assay type: in vivo, mouse
Procedure: The mice were injected i.p with IR783 at 0.2 μg/kg. Imaging was performed 24 hours later with the Kodak multimodal-imaging system. Histopathological analysis (H/E) confirmed the presence of tumors. […] Histopathology confirmed the necrotic status of the tumors.

[20] = system: orthotopic prostate ARCaPM tumor; assay: NIR imaging to assess pharmacokinetics of IR783 in vivo (FIG. 16A, 19); design: species or system mouse
Procedure: NIR imaging studies were performed to assess pharmacokinetics of the IR783 in vivo. […] This mouse was injected i.p with 0.2 μg/kg IR783 at 0 hrs.

[21] = system: human prostate cancer cells PC3 and ARCaPM in whole blood; assay: NIR detection of cancer cells spiked into human blood with IR783 (FIG. 17); assay type: cell-based
Procedure: IR783 can be used to detect and enrich disseminating cancer cells in the blood (FIG. 17). […] 5×10^3 human prostate cancer cells PC3 and ARCaPM were used to spike a 0.5 ml heparinized whole blood from a healthy donor. After incubation at 37° C. for 30 minutes, a gradient centrifugation (Histopaque-1077, Sigma) was applied to remove red blood cells. The remaining cells were washed 5 times in PBS, cells in 50 μl of the 250 μl total volume were smeared on a glass slide for NIR fluorescence detection. […] This method can detect as few as 10 human prostate cancer cells/ml of human blood, a concentration close to that of the estimated numbers of CTC as reported by previous investigators.

[22] = Procedure: Mice were injected with 20 μg/Kg of IR783 and IR780 (which was 100× of the imaging dose which was 0.2 μg/Kg) and results were compared for a 28 day period. […] Zero grams means the mouse died. ICG is a FDA approved dye used for several diagnostic purposes. ICG is considered to be nontoxic. ICG is used here as a measure of the toxicity of the tested compounds.
Toxicity test of dye based on body weight gained during the treatment period from 0 to 14 days.

## CC1(C)C(=CC=C2CCCC(C=CC3=[N+](CCCCS(=O)(=O)[O-])c4ccccc4C3(C)C)=C2Cl)N(CCCCS(=O)(=O)[O-])c2ccccc21.[Na+] [IR783]
[1]; 10 uM
  cell death in culture: did not induce cell death
[1]; 100 uM
  cell death in culture: induced a significant cell death
[1]; 100 μM, exposure 24 hrs
  apoptosis: clearly induced apoptosis
[2]
  effect on pre-established tumors: induced marked cell death, with tumors almost eliminated at Day 5
[3]
  Uptake: Strong
[4]
  Uptake: Strong
[5]
  Uptake: Low
[6]
  Uptake: Strong
[7]
  Uptake: Strong
[8]
  Uptake: Strong
[9]
  Uptake: Strong
[10]
  Uptake: Strong
[11]
  Uptake: Strong
[12]
  Uptake: Very low
[13]
  Uptake: Very low
[14]
  Uptake: Very low
[15]
  Uptake: Very low
[16]
  Uptake: Very low
[17]
  Uptake: Very low
[18]; 0° C., data not shown
  uptake by cancer cells at 0° C.: no uptake
[18]; 50 μM, 37° C., 30 min
  uptake, ARCaPM compared with P69: only in the cancer cells
[18]; 100 μM BSP pre-incubation, 50 μM IR783
  effect of BSP on uptake by ARCaPM cells: inhibited by BSP; also recorded: completely abolished
[18]; ARCaPM, FIG. 14
  time dependence of uptake: time-dependent fashion
[18]; ARCaPM, data not shown
  dose dependence of uptake: dose-dependent fashion
[19]; fluorescence imaging of all organs, data not shown
  dye in normal organs removed from hosts: lack of uptake of the dye in normal organs
[19]; mouse, in vivo
  dye in metabolically active C4-2 tumors in mouse tibia: retained the dye
  dye retention in necrotic tumors on the contralateral side: did not
[19]; orthotopic or bone metastatic lesions, data not shown
  smallest tumor size detected: ~2 mm^3
[19]; subcutaneous and intra-tibial sites of nude mice, 0.2 μg/kg i.p, 24 hours
  uptake by xenografts and metastatic bone lesions: preferentially taken up
[20]; 0.2 μg/kg i.p
  non-specific imaging: non-specific imaging can be seen in the first 24 hrs, predominantly in the liver
[20]; 0.2 μg/kg i.p, 3.4 cm^3 orthotopic ARCaPM tumor
  retention in tumors: more than 4 days
[20]; 0.2 μg/kg i.v or i.p
  initial distribution: initially accumulated in liver, lung and spleen
  time at which dye appeared in tumor: 24 h
[20]; ARCaP orthotopic tumors, FIG. 19
  time after which tumors and metastases can be readily identified: 24 to 48 h
[20]; data not shown
  signal in mice without tumors: background activity
[20]; mouse, in vivo
  accumulation in gall bladder or urinary bladder: not detected
[20]; orthotopic xenograft ARCaPm tumor, FIG. 16 legend
  time of accumulation in tumor and metastases: 24 to 96 h
[21]
  lowest number of cancer cells detected: 10 human prostate cancer cells/ml of human blood
[21]; 37° C., 30 minutes
  fluorescence of normal periphery mononucleated cells: very low to background NIR fluorescence
[21]; 37° C., 30 minutes, whole blood of a healthy donor
  fluorescence of cancer cells: strong fluorescence signals in the cytoplasm
[22]; 20 μg/Kg (100× of the imaging dose), 28 day period
  toxicity: not toxic
[22]; dose 1X (imaging dose 0.2 μg/Kg), 0 day
  body weight: 20.29 g
[22]; dose 1X, 1 day
  body weight: 20.20 g
[22]; dose 1X, 2 day
  body weight: 20.23 g
[22]; dose 1X, 3 day
  body weight: 20.32 g
[22]; dose 1X, 4 day
  body weight: 20.34 g
[22]; dose 1X, 5 day
  body weight: 21.00 g
[22]; dose 1X, 6 day
  body weight: 21.87 g
[22]; dose 1X, 7 day
  body weight: 22.32 g
[22]; dose 1X, 14 day
  body weight: 23.91 g
[22]; dose 1X, 28 day
  body weight: 24.86 g
[22]; dose 10X, 0 day
  body weight: 20.57 g
[22]; dose 10X, 1 day
  body weight: 20.61 g
[22]; dose 10X, 2 day
  body weight: 20.59 g
[22]; dose 10X, 3 day
  body weight: 20.98 g
[22]; dose 10X, 4 day
  body weight: 21.02 g
[22]; dose 10X, 5 day
  body weight: 21.34 g
[22]; dose 10X, 6 day
  body weight: 21.76 g
[22]; dose 10X, 7 day
  body weight: 22.54 g
[22]; dose 10X, 14 day
  body weight: 24.01 g
[22]; dose 10X, 28 day
  body weight: 24.87 g
[22]; dose 100X (20 μg/Kg), 0 day
  body weight: 19.85 g
[22]; dose 100X, 1 day, zero grams means the mouse died
  body weight: 19.74 g
[22]; dose 100X, 2 day, zero grams means the mouse died
  body weight: 20.01 g
[22]; dose 100X, 3 day, zero grams means the mouse died
  body weight: 20.39 g
[22]; dose 100X, 4 day, zero grams means the mouse died
  body weight: 20.43 g
[22]; dose 100X, 5 day, zero grams means the mouse died
  body weight: 21.01 g
[22]; dose 100X, 6 day, zero grams means the mouse died
  body weight: 21.23 g
[22]; dose 100X, 7 day, zero grams means the mouse died
  body weight: 22.00 g
[22]; dose 100X, 14 day, zero grams means the mouse died
  body weight: 23.76 g
[22]; dose 100X, 28 day, zero grams means the mouse died
  body weight: 24.61 g
